Among the data in patent US12528812B2 (Genentech, Inc., priority 2020, dated 2026) are Ki and IC50 values, retold here.

The target of assay [1] is Recombinant human JAK2 kinase domain protein (Residues 812-1132) (Homo sapiens, UniProt O60674). Nature of the assay: JAK2 biochemical assay (LabChip mobility shift, Ki).
The target of assay [2] is T1, recombinant human JAK1 kinase domain protein (Residues 854-1154) (Homo sapiens, UniProt P23458).
T1 construct: human JAK1 kinase domain protein (Residues 854-1154); purchased Proteros Biostructures GmbH (Martinsried, Germany); host or cells: insect cells
T1 sequence (P23458 854-1154): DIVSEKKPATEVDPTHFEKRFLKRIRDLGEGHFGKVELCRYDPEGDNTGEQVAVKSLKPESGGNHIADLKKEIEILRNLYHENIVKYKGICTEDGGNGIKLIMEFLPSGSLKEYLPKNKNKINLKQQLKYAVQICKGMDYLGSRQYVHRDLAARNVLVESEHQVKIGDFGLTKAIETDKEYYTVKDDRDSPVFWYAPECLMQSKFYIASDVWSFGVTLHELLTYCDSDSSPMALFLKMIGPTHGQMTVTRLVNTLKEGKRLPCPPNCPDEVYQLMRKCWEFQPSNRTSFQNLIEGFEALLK
Nature of the assay: JAK1 biochemical assay (LabChip mobility shift, Ki). The note with it: read-out: Biochem JAK1 Ki.

In assay [3] the test system is IL-13-stimulated STAT6 phosphorylation in human lung bronchial epithelial BEAS-2B cell line. Nature of the assay: P-STAT6 BEAS-2B + IL-13 cell assay. It counts as cell-based. The conditions noted are these: BEAS2B cells, IL13 stimulation, read-out: Cellular JAK1 PSTAT6 BEAS2B + IL13. How it is done:
In order to study the effect of JAK1 inhibitors in a cell line that is relevant to the cell biology of human asthma, an IL-13-stimulated STAT6 phosphorylation assay in the human lung bronchial epithelial BEAS-2B cell line was developed.
BEAS-2B cells (ATCC′ CRL-9609™) were grown in Bronchial Epithelial Growth Medium (BEGM) (Lonza Catalog No. CC-3170; Walkersville, MD; or PromoCell Catalog No. C-21060; Heidelberg, Germany). Test compound stock solutions (0.5 mM in DMSO) were serially diluted 1:2 in DMSO to generate a 10-point concentration curve (at 500× test concentration), which was further diluted by a 50-fold dilution step in BEGM to generate a 10× concentration curve (in 2% DMSO). Cells were plated at 100,000 cells/well in 200 μL of BEGM in 96-well plates and incubated for 48 hours at 37° C. in a humidified incubator. Medium was aspirated from the cells and replaced with 70 μL of fresh BEGM. Diluted test compound (10 μL; or 2% DMSO in assay medium) was added to the cells, and the plates were incubated for 1 hour at 37° C. in a humidified incubator. Twenty μL of 250 ng/mL human recombinant IL-13 (Bio Techne Catalog No. 213-ILB) was then added to the cells and incubated for 15 minutes at 37° C. Medium was aspirated from the cells and 60 μL of ice-cold 1× cell lysis buffer (Cell Signaling Technologies; Catalog No. 9803S) containing 1 mM PMSF was added to the cells. Assay plates were incubated at −80° C. for at least 1 hour. P-STAT6 was measured by coating GAR plates (MSD; Catalog No. L45RA-1) with rabbit anti-human total STAT6 antibody (Cell Signaling Technologies; Catalog No. 9362S), incubating the cell lysates in the coated plates overnight at 4° C., and then detecting with mouse anti-phospho-STAT6 (Tyr641) Clone 16E12 antibody (Millipore; Catalog No. 05-590, custom labeled by MSD with SULFO-tag) using standard MSD plate processing, washing, and detection protocols. Plates were read on the MESO SECTOR 5600.
Data analysis was performed by subtracting negative control values from all wells and determining percent of control using the positive control values; the IC50 was determined with a four-parameter logistic fit model as shown in Equation 4.

Like-named read-outs stand apart in the source and are kept apart here.

Recombinant human JAK2 kinase domain protein (Residues 812-1132), sequence (O60674 812-1132): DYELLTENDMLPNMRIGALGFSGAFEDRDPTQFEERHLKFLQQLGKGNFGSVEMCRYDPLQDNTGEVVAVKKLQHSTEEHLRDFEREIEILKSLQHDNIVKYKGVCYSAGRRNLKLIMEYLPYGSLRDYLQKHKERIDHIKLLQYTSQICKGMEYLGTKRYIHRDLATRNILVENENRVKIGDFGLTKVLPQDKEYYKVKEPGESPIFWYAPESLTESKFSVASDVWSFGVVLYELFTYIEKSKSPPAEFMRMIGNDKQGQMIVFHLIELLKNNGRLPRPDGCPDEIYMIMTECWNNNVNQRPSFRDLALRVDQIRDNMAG

Turning to `O=C(Nc1c[nH]nc1-c1cc(Oc2cccc(C3(O)CNC3)c2)ccc1OC(F)F)c1cnn2cccnc12` [Example 137, N-[3-[2-(difluoromethoxy)-5-[3-(3-hydroxyazetidin-3-yl)phenoxy]phenyl]-1H-pyrazol-4-yl]pyrazolo[1,5-a]pyrimidine-3-carboxamide;2,2,2-trifluoroacetic acid], the Ki in assay [1] (read-out: Biochem JAK2 Ki) worked out at 0.51 nM; in assay [2], 0.82 nM. The IC50 in assay [3] is 1000 nM.

For the compound `Cn1cc(NC(=O)c2cnn3cccnc23)c(-c2cc(Oc3ccc(CN4CCC4CO)cc3)ccc2OC(F)F)n1` (racemic) [Example 169, N-[3-[2-(difluoromethoxy)-5-[4-[[rac-(2R)-2-(hydroxymethyl)azetidin-1-yl]methyl]phenoxy]phenyl]-1-methyl-pyrazol-4-yl]pyrazolo[1,5-a]pyrimidine-3-carboxamide], the Ki in assay [1] (Biochem JAK2 Ki) was 0.68 nM; in assay [2] it was 1.2 nM. In assay [3], the IC50 came out at 29 nM.

For the compound `CN(C)[C@H]1CCN(C(=O)c2cccc(Oc3ccc(OC(F)F)c(-c4nn(C)cc4NC(=O)c4cnn5cccnc45)c3)c2)C1` (racemic) [Example 210, N-[3-[2-(difluoromethoxy)-5-[3-[rac-(3R)-3-(dimethylamino)pyrrolidine-1-carbonyl]phenoxy]phenyl]-1-methyl-pyrazol-4-yl]pyrazolo[1,5-a]pyrimidine-3-carboxamide], the Ki is 0.95 nM in assay [1] (Biochem JAK2 Ki) and 1.1 nM in assay [2]. Moreover, the IC50 in assay [3] (Homo sapiens, BEAS-2B) was found to be 50 nM.

For `Cn1cc(NC(=O)c2cnn3cccnc23)c(-c2cc(Oc3cccc(CNCCO)c3)ccc2OC(F)F)n1` [Example 23, N-[3-[2-(difluoromethoxy)-5-[3-[(2-hydroxyethylamino)methyl]phenoxy]phenyl]-1-methyl-pyrazol-4-yl]pyrazolo[1,5-a]pyrimidine-3-carboxamide], the Ki in assay [1] (Biochem JAK2 Ki) was 0.35 nM; in assay [2] it was 0.37 nM. Moreover, in assay [3] (Homo sapiens, BEAS-2B), the IC50 is 24 nM.

Regarding `CN1CCCC(O)(Cn2cc(Oc3ccc(OC(F)F)c(-c4nn(C)cc4NC(=O)c4cnn5cccnc45)c3)cn2)C1` (stereo not drawn) [Example 194, N-[3-[2-(difluoromethoxy)-5-[1-[(3-hydroxy-l-methyl-3-piperidyl)methyl]pyrazol-4-yl]oxy-phenyl]-1-methyl-pyrazol-4-yl]pyrazolo[1,5-a]pyrimidine-3-carboxamide], the Ki in assay [1] (Biochem JAK2 Ki) is 1.4 nM; in assay [2], 2.1 nM. The IC50 in assay [3] was 64 nM.

On to `Cn1cc(NC(=O)c2cnn3cccnc23)c(-c2cc(Oc3ccc(CC(=O)N4CCOCC4)cc3)ccc2OC(F)F)n1` [Example 156, N-[3-[2-(difluoromethoxy)-5-[4-(2-morpholino-2-oxo-ethyl)phenoxy]phenyl]-1-methyl-pyrazol-4-yl]pyrazolo[1,5-a]pyrimidine-3-carboxamide], for which the Ki came to 0.12 nM in assay [1] (Biochem JAK2 Ki) and 0.27 nM in assay [2]. The IC50 in assay [3] (Homo sapiens, BEAS-2B) was 23 nM.

As to `Cc1ccc(Oc2ccc(OC(F)F)c(-c3nn(CCN[C@H]4CCOC4)cc3NC(=O)c3cnn4cccnc34)c2)cc1C(=O)N(C)C` (racemic) [Example 58, N-[3-[2-(difluoromethoxy)-5-[3-(dimethylcarbamoyl)-4-methyl-phenoxy]phenyl]-1-[2-[[rac-(3R)-tetrahydrofuran-3-yl]amino]ethyl]pyrazol-4-yl]pyrazolo[1,5-a]pyrimidine-3-carboxamide], the results for the Ki in assay [1] (Biochem JAK2 Ki) and in assay [2] were 0.7 nM and 1.2 nM, respectively. Moreover, the IC50 in assay [3] (Homo sapiens, BEAS-2B) was 33 nM.

With `Cc1ccc(Oc2ccc(OC(F)F)c(-c3n[nH]cc3NC(=O)c3cnn4cccnc34)c2)cc1CC(=O)N(C)C` [Example 17, N-[3-[2-(difluoromethoxy)-5-[3-[2-(dimethylamino)-2-oxo-ethyl]-4-methyl-phenoxy]phenyl]-1H-pyrazol-4-yl]pyrazolo[1,5-a]pyrimidine-3-carboxamide], the values for the Ki in assay [1] (Biochem JAK2 Ki) and in assay [2] were 0.21 nM and 0.42 nM, respectively. The IC50 in assay [3] (Homo sapiens, BEAS-2B) was determined as 26 nM.

`O=C(Nc1c[nH]nc1-c1cc(Oc2ccc(OCC(F)(F)F)cc2)ccc1OC(F)F)c1cnn2cccnc12` [Example 5, N-[3-[2-(difluoromethoxy)-5-[4-(2,2,2-trifluoroethoxy)phenoxy]phenyl]-1H-pyrazol-4-yl]pyrazolo[1,5-a]pyrimidine-3-carboxamide]: the Ki in assay [1] (Biochem JAK2 Ki) came out at 0.91 nM; in assay [2], 1.1 nM. Besides, the IC50 in assay [3] (Homo sapiens, BEAS-2B) was 18 nM.

Take `Cn1cc(NC(=O)c2cnn3cccnc23)c(-c2cc(Oc3cccc(CN[C@H]4C[C@H](O)C4)c3)ccc2OC(F)F)n1` [Example 72, N-[3-[2-(difluoromethoxy)-5-[3-[[(3-hydroxycyclobutyl)amino]methyl]phenoxy]phenyl]-1-methyl-pyrazol-4-yl]pyrazolo[1,5-a]pyrimidine-3-carboxamide]: the Ki in assay [1] (Biochem JAK2 Ki) is 0.74 nM; in assay [2], 0.91 nM. Besides, in assay [3] (Homo sapiens, BEAS-2B), the IC50 was 62 nM.

As for `CN1CC(Cn2cc(Oc3ccc(OC(F)F)c(-c4nn(C)cc4NC(=O)c4cnn5cccnc45)c3)cn2)C1` [Example 127, N-[3-[2-(difluoromethoxy)-5-[1-[(1-methylazetidin-3-yl)methyl]pyrazol-4-yl]oxy-phenyl]-1-methyl-pyrazol-4-yl]pyrazolo[1,5-a]pyrimidine-3-carboxamide], the values for the Ki in assay [1] (Biochem JAK2 Ki) and in assay [2] were 1.5 nM and 1.6 nM, respectively. For the same compound, in assay [3] (Homo sapiens, BEAS-2B), the IC50 turned out to be 46 nM.

Turning to `CNCc1cccc(Oc2ccc(OC(F)F)c(-c3n[nH]cc3NC(=O)c3cnn4cccnc34)c2)c1` [Example 15, N-[3-[2-(difluoromethoxy)-5-[3-(methylaminomethyl)phenoxy]phenyl]-1H-pyrazol-4-yl]pyrazolo[1,5-a]pyrimidine-3-carboxamide], the results for the inhibition constant (Ki) in assay [1] (Biochem JAK2 Ki) and in assay [2] were 0.4 nM and 0.32 nM, respectively. In addition, the IC50 in assay [3] (Homo sapiens, BEAS-2B) turned out to be 24 nM.

Turning to `Cn1cc(NC(=O)c2cnn3cccnc23)c(-c2cc(Oc3cnn(CC4(O)CN5CCC4CC5)c3)ccc2OC(F)F)n1` (stereo not drawn) [Example 199, N-[3-[2-(difluoromethoxy)-5-[1-[(3-hydroxyquinuclidin-3-yl)methyl]pyrazol-4-yl]oxy-phenyl]-1-methyl-pyrazol-4-yl]pyrazolo[1,5-a]pyrimidine-3-carboxamide], the values for the Ki in assay [1] (Biochem JAK2 Ki) and in assay [2] were 0.43 nM and 0.88 nM, respectively. Further, the IC50 in assay [3] was determined as 130 nM.

On to `CN1CCC(O)(Cn2cc(Oc3ccc(OC(F)F)c(-c4nn(C)cc4NC(=O)c4cnn5cccnc45)c3)cn2)CC1` [Example 191, N-[3-[2-(difluoromethoxy)-5-[1-[(4-hydroxy-1-methyl-4-piperidyl)methyl]pyrazol-4-yl]oxy-phenyl]-1-methyl-pyrazol-4-yl]pyrazolo[1,5-a]pyrimidine-3-carboxamide], for which the Ki in assay [1] (Biochem JAK2 Ki) was found to be 0.19 nM; in assay [2], 0.54 nM. Moreover, the IC50 in assay [3] (Homo sapiens, BEAS-2B) was 110 nM.

`Cn1cc(NC(=O)c2cnn3cccnc23)c(-c2cc(Oc3cnn(CC4(O)CN5CCC4CC5)c3)ccc2OC(F)F)n1` (stereo not drawn) [Example 200, N-[3-[2-(difluoromethoxy)-5-[1-[(3-hydroxyquinuclidin-3-yl)methyl]pyrazol-4-yl]oxy-phenyl]-1-methyl-pyrazol-4-yl]pyrazolo[1,5-a]pyrimidine-3-carboxamide]: the Ki is 1.6 nM in assay [1] (Biochem JAK2 Ki) and 3.6 nM in assay [2]. The IC50 in assay [3] is 780 nM.

Regarding `CN(C)C(=O)c1cccc(Oc2ccc(OC(F)F)c(-c3nn(C)cc3NC(=O)c3cnn4cccnc34)c2)c1` [Example 62, N-[3-[2-(difluoromethoxy)-5-[3-(dimethylcarbamoyl)phenoxy]phenyl]-1-methyl-pyrazol-4-yl]pyrazolo[1,5-a]pyrimidine-3-carboxamide], the Ki in assay [1] (Biochem JAK2 Ki) amounted to 0.24 nM; in assay [2], 0.35 nM. In addition, the IC50 in assay [3] (Homo sapiens, BEAS-2B) is 14 nM.

Regarding `CN(CCN1CCOCC1)C(=O)c1cccc(Oc2ccc(OC(F)F)c(-c3nn(C)cc3NC(=O)c3cnn4cccnc34)c2)c1` [Example 92, N-[3-[2-(difluoromethoxy)-5-[3-[methyl(2-morpholinoethyl)carbamoyl]phenoxy]phenyl]-1-methyl-pyrazol-4-yl]pyrazolo[1,5-a]pyrimidine-3-carboxamide], the Ki in assay [1] (Biochem JAK2 Ki) was found to be 0.68 nM; in assay [2], 1.1 nM. Moreover, the IC50 in assay [3] (Homo sapiens, BEAS-2B) was found to be 56 nM.

As usually defined, the Ki is the dissociation constant of the complex between target and ligand, obtained from inhibition or displacement.
